{"source": "patent US20260183356A1", "about": "“NOVEL COMBINATION BASED ON RIFAXIMIN AND PROBIOTIC YEASTS, COMPOSITIONS CONTAINING IT AND THEIR USE IN THERAPY” (NYUMA PHARMA SRL, priority 2022, published 2026)", "key": {"[1]": {"test_system": "Escherichia coli ATCC 8739", "experiment": "Microdilution test, control bacterial strain Escherichia coli (growth abatement, OD600)", "assay_type": "cell-based", "procedure": "(§1) The test aims to assess the in vitro susceptibility of the yeast Kluyveromyces marxianus to the antibiotic rifaximin. The test is performed by assaying 8 scalar dilutions of rifaximin in liquid culture medium (microdilution). Bacterial strains are tested in parallel as controls. Rifaximin is a synthetic molecule derived from rifamycin. The powder is characterized by poor solubility in water and tendency to self-aggregate in the liquid phase. A preliminary step is then performed to set the solubility conditions of rifaximin at the highest concentration used in the test (0.5 mg/ml). The following strains were used • Kluyveromyces marxianus B099 • Bifidobacterium longum […] • Escherichia coli ATCC 8739 The Escherichia coli bacterial strain was revitalized from a reference stock suspension stored at -80° C. After thawing, working cultures were set up by growing the strain in suitable plate medium under the optimal growth conditions. The other strains were obtained after plating on agarized culture medium of the specific matrices and subsequent isolation of pure colonies. In Table 1 the strains and the growth and inoculation conditions are set forth. [table] In the microdilution test, broth-cultures of the test microorganisms are set up in triplicates in the presence of 8 different concentrations of rifaximin, which are selected in agreement with the client, and 1 concentration of rifamycin corresponding to the highest concentration selected for rifaximin. 100 μl of a solution, 2 times more concentrated (2×) than the desired concentration, and 100 μl of the microbial suspension at a titer given in Table 2.2.1, were added to each well of the 96-wells plates. The 8 concentrations of rifaximin are produced from the 50 mg/ml solution in DMSO in TSB and in parallel in SDB. The final test concentrations are as follows: 0.5 mg/ml-0.25 mg/ml-0.125 mg/ml-0.063 mg/ml-0.031 mg/ml-0.015 mg/ml-0.0078 mg/ml-0.0039 mg/ml. Following the absorbance measurement on the spectrophotometer, the mean of the data recorded for each concentration and the mean of the data from the controls in DMSO or sterile water are calculated. To estimate the microbial growth and determine MIC from the mean data obtained (in the test and controls), the blank data are subtracted and then the control data and the test data are compared with each other to assess any growth or growth inhibition of each strain tested. The growth inhibition is calculated as a percentage by the following formula: [formula] • wherein • A: Mean OD of control • B: Mean OD of the sample at the concentration tested • MIC is considered the lowest concentration of product that can give at least 90% growth inhibition. A solution of rifamycin is prepared, at the 50 mg/ml concentration in sterile water, which is then diluted in tryptic soy broth (TSB) and in parallel in Sabouraud dextrose broth (SDB) until the 0.5 mg/ml concentration used in the test is obtained. The plates are incubated at the optimal temperatures and growth conditions of the various strains tested as described in Example 5. After the days of incubation have passed, the absorbance at 600 nm (OD600) is measured by spectrophotometer. The mean values after subtracting the blank are used to estimate microbial growth and determine MIC."}, "[2]": {"test_system": "Kluyveromyces marxianus B099", "experiment": "Microdilution test, susceptibility of Kluyveromyces marxianus to the antibiotic (growth abatement, OD600)", "assay_type": "cell-based", "procedure": "as §1"}, "[3]": {"test_system": "Bifidobacterium longum W11", "experiment": "Microdilution test, control bacterial strain Bifidobacterium longum (growth abatement, OD600)", "assay_type": "cell-based", "conditions": "for Abatement of strain growth: Bifidobacterium longum W11", "procedure": "as §1"}, "[4]": {"experiment": "Preliminary solubilization test in DMSO", "assay_type": "physicochemical", "conditions": "starting stock solution", "procedure": "The test aims to assess the in vitro susceptibility of the yeast Kluyveromyces marxianus to the antibiotic rifaximin. The test is performed by assaying 8 scalar dilutions of rifaximin in liquid culture medium (microdilution). Bacterial strains are tested in parallel as controls. Rifaximin is a synthetic molecule derived from rifamycin. The powder is characterized by poor solubility in water and tendency to self-aggregate in the liquid phase. A preliminary step is then performed to set the solubility conditions of rifaximin at the highest concentration used in the test (0.5 mg/ml). The exploratory step is performed to set the solubilization conditions of rifaximin and the culture conditions of the microbial strains. Given the poor solubility of rifaximin powder in water and the tendency for self-aggregation in the liquid phase, a solubilization test in DMSO (dimethyl sulfoxide) is performed. […] The first concentration used in the test and the subsequent dilutions (set up in Tryptic soy broth-TSB or Sabouraud dextrose broth-SDB, base-2 serial dilutions) were defined in agreement with the client, based on literature data. The strains were expanded first in liquid medium and then in agarized medium, as described in Table 2.2.1, obtaining growth results that confirmed the use of these media and conditions for the microdilution test as well."}, "[5]": {"conditions": "rifamycin 0.5 mg/ml (stock in sterile water)"}}}
{"compound": "CO[C@H]1/C=C/O[C@@]2(C)Oc3c(C)c(O)c4c(O)c(cc(O)c4c3C2=O)NC(=O)/C(C)=C\\C=C\\[C@H](C)[C@H](O)[C@@H](C)[C@@H](O)[C@@H](C)[C@H](OC(C)=O)[C@@H]1C", "note": "[rifamycin]", "values": [{"measurement": "Growth inhibition, conclusion in words", "setting": "[1]", "value": "inhibits the growth"}, {"measurement": "Abatement of strain growth", "setting": "[1]; [5]", "value": 79.7, "unit": "%"}, {"measurement": "Growth inhibition, conclusion in words", "setting": "[2]", "value": "inhibits the growth"}, {"measurement": "Abatement of strain growth", "setting": "[2]; [5]", "value": 88.9, "unit": "%"}, {"measurement": "Growth inhibition, conclusion in words", "setting": "[3]; Bifidobacterium longum", "value": "inhibits the growth"}, {"measurement": "Abatement of strain growth", "setting": "[3]; [5]", "value": 87.5, "unit": "%"}]}
{"compound": "CO[C@H]1/C=C/O[C@@]2(C)Oc3c(C)c(O)c4c(O)c(c5c(nc6cc(C)ccn65)c4c3C2=O)NC(=O)/C(C)=C\\C=C\\[C@H](C)[C@H](O)[C@@H](C)[C@@H](O)[C@@H](C)[C@H](OC(C)=O)[C@@H]1C", "note": "[rifaximin]", "values": [{"measurement": "Growth inhibition, conclusion in words", "setting": "[1]", "value": "inhibits the growth"}, {"measurement": "Growth inhibition", "setting": "[1]; at ≥0.031 mg/ml concentrations", "value": "~99", "unit": "%"}, {"measurement": "Abatement of strain growth", "setting": "[1]; rifaximin 0.0039 mg/ml", "value": 45.7, "unit": "%"}, {"measurement": "Abatement of strain growth", "setting": "[1]; rifaximin 0.0078 mg/ml", "value": 54.9, "unit": "%"}, {"measurement": "Abatement of strain growth", "setting": "[1]; rifaximin 0.015 mg/ml", "value": 94.5, "unit": "%"}, {"measurement": "Abatement of strain growth", "setting": "[1]; rifaximin 0.031 mg/ml", "value": ">99.9", "unit": "%"}, {"measurement": "Abatement of strain growth", "setting": "[1]; rifaximin 0.063 mg/ml", "value": 99.6, "unit": "%"}, {"measurement": "Abatement of strain growth", "setting": "[1]; rifaximin 0.125 mg/ml", "value": ">99.9", "unit": "%"}, {"measurement": "Abatement of strain growth", "setting": "[1]; rifaximin 0.25 mg/ml", "value": 98.5, "unit": "%"}, {"measurement": "Abatement of strain growth", "setting": "[1]; rifaximin 0.5 mg/ml", "value": 98.1, "unit": "%"}, {"measurement": "Highest concentration in DMSO with no visible precipitates and clear", "setting": "[4]", "value": 50, "unit": "mg/mL"}, {"measurement": "Growth inhibition, conclusion in words", "setting": "[2]", "value": "does not inhibit the growth"}, {"measurement": "Abatement of strain growth", "setting": "[2]; rifaximin 0.0039 mg/ml", "value": 1.5, "unit": "%"}, {"measurement": "Abatement of strain growth", "setting": "[2]; rifaximin 0.0078 mg/ml", "value": "−1.7", "unit": "%"}, {"measurement": "Abatement of strain growth", "setting": "[2]; rifaximin 0.015 mg/ml", "value": "−3.3", "unit": "%"}, {"measurement": "Abatement of strain growth", "setting": "[2]; rifaximin 0.031 mg/ml", "value": "−2.1", "unit": "%"}, {"measurement": "Abatement of strain growth", "setting": "[2]; rifaximin 0.063 mg/ml", "value": "−2.6", "unit": "%"}, {"measurement": "Abatement of strain growth", "setting": "[2]; rifaximin 0.125 mg/ml", "value": "−3.5", "unit": "%"}, {"measurement": "Abatement of strain growth", "setting": "[2]; rifaximin 0.25 mg/ml", "value": "−1.2", "unit": "%"}, {"measurement": "Abatement of strain growth", "setting": "[2]; rifaximin 0.5 mg/ml", "value": "−4.7", "unit": "%"}, {"measurement": "Growth inhibition, conclusion in words", "setting": "[3]; Bifidobacterium longum", "value": "inhibits the growth"}, {"measurement": "Growth inhibition", "setting": "[3]; Bifidobacterium longum, virtually all concentrations except 0.0039 mg/ml", "value": "> 99.9", "unit": "%"}, {"measurement": "Abatement of strain growth", "setting": "[3]; rifaximin 0.0039 mg/ml", "value": 45.5, "unit": "%"}, {"measurement": "Abatement of strain growth", "setting": "[3]; rifaximin 0.0078 mg/ml", "value": ">99.9", "unit": "%"}, {"measurement": "Abatement of strain growth", "setting": "[3]; rifaximin 0.015 mg/ml", "value": ">99.9", "unit": "%"}, {"measurement": "Abatement of strain growth", "setting": "[3]; rifaximin 0.031 mg/ml", "value": ">99.9", "unit": "%"}, {"measurement": "Abatement of strain growth", "setting": "[3]; rifaximin 0.063 mg/ml", "value": ">99.9", "unit": "%"}, {"measurement": "Abatement of strain growth", "setting": "[3]; rifaximin 0.125 mg/ml", "value": ">99.9", "unit": "%"}, {"measurement": "Abatement of strain growth", "setting": "[3]; rifaximin 0.25 mg/ml", "value": 98.7, "unit": "%"}, {"measurement": "Abatement of strain growth", "setting": "[3]; rifaximin 0.5 mg/ml", "value": ">99.9", "unit": "%"}]}
